{"source": "paper PMC12333026", "about": "“Versatile Imidazole Scaffold with Potent Activity against Multiple Apicomplexan Parasites” (ACS Infectious Diseases, 2025)", "origin": "cited, not measured here", "target": "PfPKG (Plasmodium falciparum, UniProt Q8I719)", "sequence (Q8I719 whole entry)": "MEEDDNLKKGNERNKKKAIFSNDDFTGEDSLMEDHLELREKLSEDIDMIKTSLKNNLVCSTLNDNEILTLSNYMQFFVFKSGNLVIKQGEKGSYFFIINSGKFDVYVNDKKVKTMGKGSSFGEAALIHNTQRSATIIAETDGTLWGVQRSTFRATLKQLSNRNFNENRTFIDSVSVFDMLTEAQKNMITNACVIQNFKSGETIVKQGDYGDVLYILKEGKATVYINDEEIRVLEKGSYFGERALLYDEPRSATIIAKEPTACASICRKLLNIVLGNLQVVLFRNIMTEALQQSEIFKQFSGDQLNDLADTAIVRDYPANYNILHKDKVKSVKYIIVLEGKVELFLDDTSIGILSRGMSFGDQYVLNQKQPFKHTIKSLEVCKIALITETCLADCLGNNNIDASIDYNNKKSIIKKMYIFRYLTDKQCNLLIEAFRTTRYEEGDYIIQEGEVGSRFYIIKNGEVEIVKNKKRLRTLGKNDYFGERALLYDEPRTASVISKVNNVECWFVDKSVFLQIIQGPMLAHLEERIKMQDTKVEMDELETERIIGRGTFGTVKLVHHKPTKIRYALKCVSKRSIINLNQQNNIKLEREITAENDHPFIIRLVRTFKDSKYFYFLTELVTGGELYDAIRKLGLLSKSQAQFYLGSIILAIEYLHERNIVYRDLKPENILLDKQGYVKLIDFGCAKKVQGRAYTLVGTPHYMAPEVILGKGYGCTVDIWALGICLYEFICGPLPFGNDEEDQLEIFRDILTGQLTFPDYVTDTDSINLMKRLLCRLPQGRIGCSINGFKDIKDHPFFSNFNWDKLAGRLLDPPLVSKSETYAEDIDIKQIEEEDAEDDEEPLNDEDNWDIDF", "parameters": "method as in number not shown in text", "settings": "enantiomer comparison; recently reported by the authors, ref number not shown in text; cited from earlier work"}
{"smiles": "O=C(c1nccs1)N1CC[C@H](Nc2nccc(-n3cc(C4CC4)nc3-c3ccccc3)n2)C1", "note": "[(S)-RY-1-165]", "values": [{"measurement": "PfPKG inhibition (in words)", "value": "inactive"}]}
